Test results reported in patent US4459294A, “Phosphoric and thiophosphoric esters of 5(3)-hydroxypyrazoles exerting an insecticidal action” (priority 1977, dated 1984).

How the values were obtained:
Pieris brassicae = assay: Biological activity on Pieris brassicae (Lepitoptera), 5-day old larvae; assay type: in vivo; conditions: 0.1 permill.; 48 hours after treatment
Experimental: Biological activity on Pieris brassicae (Lepitoptera)
Cut cauliflower leaves were sprinkled with an aqueous dispersion of the products under examination. After drying, the leaves were infested with 5-day old larvae. The percentage death rate of the larvae (untreated leaves=0) was determined 48 hours after treatment.

Spodoptera littoralis = assay: Biological activity on Spodoptera littoralis (Lepidoptera), 5-days old larvae; assay type: in vivo; conditions: 0.1 permill.; 48 hours after treatment
Experimental: Biological activity on Spodoptera littoralis (Lepidoptera)
Cut tobacco leaves were sprinkled with an aqueous dispersion of the products under examination. After drying, the leaves were infested with 5-days old larvae. The percentage mortality of the larvae was determined 48 hours after treatment (untreated leaves, mortality=0).

Culex pipiens larvae = assay: Biological activity on Culex pipiens (diptera) larvae; assay type: in vivo; conditions: 24 hours after treatment, read-out: percentage of reduction of the infestation (percentage death rate), Culex larvae
Experimental: Biological activity on Culex pipiens (diptera) larvae
Into glasses containing an aqueous dispersion of the products under examination, were introduced third and fourth age mosquito larvae. The percentage death rate of the larvae (glasses containing pure water=0) was determined 24 hours after treatment.

Culex pipiens adults = assay: Biological activity on Culex pipiens (Diptera): adults; assay type: in vivo; conditions: 0.2 g/m^2, 24 hours after beginning of treatment, read-out: percentage of reduction of the infestation (mortality percentage), Culex ad.
Experimental: Biological activity on Culex pipiens (Diptera): adults
Whatman n°1 paper rectangles were treated uniformly with an acetonic solution of the products under examination. After evaporation of the solvent, each treated paper rectangle was used to line the inside wall of a perspex cylinder (model OMS). The paper-lined perspex cylinder was then closed with a net after having introduced into it 2-3 days old adult females. After one hour from the start of the contact, the insects were transferred into a similar cylinder likewise lined with untreated paper, and were fed with a sugary solution.
The mortality percentage (untreated insects=0) was determined 24 hours after the beginning of the treatment.

Musca domestica = assay: Biological activity on Musca domestica (Diptera), topical application; assay type: in vivo; conditions: 0.5 γ/ins, 24 hours after treatment
Experimental: Biological activity on Musca domestica (Diptera)
4-days old adults were treated, by topical application by microsyringe, with an acetonic solution of the products under examination.
The mortality percentage (insects treated with acetone only=0) was determined 24 hours after the treatment.

[1] = test system: Leptinatarsa decomlineata; assay: Biological activity on Leptinatarsa decomlineata (Coledptera), 4-day old larvae; assay type: in vivo; conditions: 0.1 permill.; 48 hours after treatment
Experimental: Biological activity on Leptinatarsa decomlineata (Coledptera)
Small, pot-grown potato-plants were infested with 4-day old larvae, and then were sprinkled with an aqueous dispersion of the products under examination. The percentage death rate (untreated plants=0) was determined 48 hours after treatment.

Macrosiphum euphorbiae = assay: Biological activity on Macrosiphum euphorbiae (aphides); assay type: in vivo; parameters: tested at 0.01 permill; conditions: 0.01 permill.; 24 hours after treatment
Experimental: Biological activity on Macrosiphum euphorbiae (aphides)
Small potato plants grown in pots were infested with adult female aphides and, after several hours, were sprinkled with an aqueous dispersion of the products under examination.
The percentage death rate was determined 24 hours after treatment (untreated plants=0).

Tetranychus urticae = assay: Biological activity on Tetranychus urticae (Acari) adults; assay type: in vivo; conditions: 0.01 permill.; 24 hours after treatment
Experimental: Biological Activity on Tetranychus urticae (Acari) adults
Small bean leaf discs were infected with adult acari and were then sprinkled with an aqueous dispersion of the products under examination. The percentage of mortality was determined 24 hours after the treatment (untreated discs, mortality=0).

Meloidogyne incognita = assay: Biological activity on Meloidogyne incognita (Nematoda); assay type: in vivo; conditions: 20 ppm; 21 days after transplanting
Experimental: Biological activity on Meloidogyne incognita (Nematoda)
Aliquot parts of a 1:1 mixture of field soil and sand, infested by Nematoda larvae and eggs, were treated by uniformly mixing same with an aqueous dispersion of the products under examination. The soil was then distributed into plastic pots, and after 5 days into each pot there were transplanted 5 tomato plants about 20 cm high. The survey of the results was carried out 21 days after the transplanting, by observing the roots of the plants extracted from the soil in order to ascertain the degree of infestation by counting the galls that have formed on them. The nematocide activity was expressed as a percentage of reduction of the infestation with respect to the witness plant (small plants transplanted into untreated soil, activity=0).

Blatta orientalis = assay: Biological activity on Blatta orientalis (Ortoptera); assay type: in vivo; conditions: 0.1 g/m^2, 48 hours after start of treatment, read-out: percentage of reduction of the infestation (percentage mortality), Blatta
Experimental: Biological activity on Blatta orientalis (Ortoptera)
The bottom and side walls of glass beakers were treated uniformly with an acetonic solution of the products under examination. After evaporation of the solvent in each beaker, into the same were then introduced ten, 80-100 days old neanides, whereafter they were closed with a lid of metal netting. After 24 hours from the beginning of the treatment, the insects were transferred into untreated glass beakers, and suitably nourished. The percentage mortality (untreated insects=0) was determined 48 hours after the start of the treatment.

Toxicity by os on rats = conditions: rat, in vivo, po

| Compound | percentage of reduction of the infestation (percentage death rate of larvae), Pieris B (Pieris brassicae) [%] | percentage of reduction of the infestation (percentage mortality of larvae), Spodoptera L (Spodoptera littoralis) [%] | mortality at 0.2 ppm (Culex pipiens larvae) [%] | mortality at 0.2 g/m2 (Culex pipiens adults) [%] | percentage of reduction of the infestation (mortality percentage), Musca d. (Musca domestica) [%] | percentage of reduction of the infestation (percentage death rate), Leptinot D. [1] [%] | percentage of reduction of the infestation (percentage death rate), Macrosiph. E. (Macrosiphum euphorbiae) [%] | percentage of reduction of the infestation (percentage of mortality), Tetran U. (Tetranychus urticae) [%] | percentage of reduction of the infestation, Meloidog. I. (Meloidogyne incognita) [%] | mortality at 0.1 g/m2 (Blatta orientalis) [%] | LD50 (Toxicity by os on rats) [mg/kg] |
| --- | --- | --- | --- | --- | --- | --- | --- | --- | --- | --- | --- |
| COP(=S)(OC)Oc1cc(Cl)nn1C [Compound 14] | 100 | 82 | 100 | 100 | 100 | 37 | 96 | 100 | 41 | 100 | 560 |
| CCOP(=S)(OCC)Oc1cc(Cl)nn1Cc1ccccc1 [Compound 29] | 100 | 100 | 100 | 5 | 100 | 100 | 60 | 100 | 59 | 100 | – |
| CCOP(=S)(OCC)Oc1cc(C=C(Cl)Cl)nn1CCC#N [Compound 9] | 100 | 100 | 100 | 0 | 100 | 100 | 85 | 85 | – | 100 | – |
| CCn1nc(Cl)cc1OP(=S)(OC)OC [Compound 21] | 100 | 70 | 100 | 100 | 100 | 100 | 100 | 100 | 100 | 100 | – |
| CCOP(=S)(OCC)Oc1cc(Cl)n(-c2ccc([N+](=O)[O-])cc2)n1 [Compound 52] | 100 | 95 | 100 | 0 | 100 | 37 | 54 | 96 | 96 | 100 | – |
| CCOP(=S)(NC(C)C)Oc1cc(Cl)nn1C (stereo not drawn) [Compound 49] | 100 | 15 | 100 | 100 | 100 | 100 | 81 | 63 | – | 100 | – |
| CCOP(=S)(OCC)Oc1cc(Cl)nn1-c1ccccc1 [Compound 2] | 100 | 100 | 100 | 100 | 100 | 97 | 40 | – | – | 100 | 33 |
| CCOP(=S)(OC)Oc1cc(Cl)nn1CC (stereo not drawn) [Compound 24] | 100 | 90 | 100 | 100 | 100 | 100 | 96 | 100 | 62 | 100 | – |
| COP(=S)(OC)Oc1cc(Cl)nn1C(C)C [Compound 4] | – | 80 | 100 | 100 | 100 | 100 | 94 | 80 | – | 100 | 1100 |
| CCOP(=S)(OCC)Oc1cc(Cl)nn1CCC#N [Compound 7] | 100 | 100 | 100 | 70 | 100 | 100 | 100 | 100 | 100 | 100 | – |
| CCOP(=S)(OCC)Oc1cc(Cl)n[nH]1 [Compound 11] | – | – | – | – | – | – | – | – | – | – | 70 |
| CCOP(=S)(OC)Oc1cc(Cl)n(-c2ccc([N+](=O)[O-])cc2)n1 (stereo not drawn) [Compound 51] | 100 | 100 | 100 | 0 | 100 | 85 | 51 | 94 | 82 | – | – |
| CCOP(=S)(OCC)Oc1cc(Cl)nn1CC [Compound 3] | 100 | 82 | 100 | 100 | 100 | 100 | 98 | 100 | 96 | 100 | – |
